Data reported in patent US12612389B2, “Benzofuran-based N-acylhydrazone derivative and pharmaceutical composition comprising same” (KOREA RESEARCH INSTITUTE OF BIOSCIENCE AND BIOTECHNOLOGY, priority 2019, dated 2026).
pIC50: −log10 of the molar value. Where two headings read alike, the source gives them in different places.

Experiments:
MCF7/ADR = assay: Anti-proliferative activity test in cancer cells exhibiting multidrug resistance (MTT); format: cell-based; settings: for pIC50: Homo sapiens, NCI/ADR-RES, 96 h, MCF7/ADR (multidrug-resistant), 4 days, MTT; for Resistance Factor: ratio IC50 MCF7/ADR to IC50 MCF7
Procedure: (§1) HeLa cells (American Type Culture Collection: ATCC, USA), a human cervical cancer cell line, were seeded in a 96-well plate at 3×10^3 cells/well, and the cells were then treated with compounds of Examples or Comparative Example according to the present invention and grown for 2 days. Then, MTT (3-(4,5-dimethylthiazol-2-yl)-2,5-diphenyltetrazolium bromide) reagent was added at 10 μL/well. […] The data shown in Table below are mean values of results obtained by repeating the analysis twice. Specifically, K562 and MCF7 (Bio Evaluation Center, Korea Research Institute of Bioscience and Biotechnology, Korea) and multidrug-resistant cell lines of each of these cell lines, i.e., K562/ADR and MCF7/ADR (Bio Evaluation Center, Korea Research Institute of Bioscience and Biotechnology, Korea), were cultured on microtiter plates (1-3×10^3 cells/well). […] The data shown in Table below are mean values of results obtained by repeating the analysis three times.

K562/ADR = assay: as above; format: cell-based; settings: for pIC50: Homo sapiens, 96 h, K562/ADR (multidrug-resistant), 4 days, MTT; for Resistance Factor: ratio IC50 K562/ADR to IC50 K562
Procedure: as §1

MCF7 = assay: Anti-proliferative activity test in cancer cells exhibiting multidrug resistance (MTT), parent line; format: cell-based; settings: Homo sapiens, 96 h, 4 days
Procedure: as §1

K562 = assay: as above; format: cell-based; settings: Homo sapiens, 96 h, 4 days
Procedure: as §1

[1] = Pharmacokinetic (PK) test; format: in vivo, male ICR mice; settings: for Vd: iv; for AUC(0-t): read-out: AUClast, Mean
Procedure: Pharmacokinetic (PK) parameters of the Example compounds according to the present invention were determined using male ICR mice as follows (n=3).
Pharmacokinetic (PK) parameters were measured by non-compartmental analysis of plasma concentration-time curves using Kinetica™ 4.4.1 (Thermo Fisher Scientific, USA). Results thereof are shown in Table below and FIGS. 5A to 5C. In Table below, “F” parameter was calculated using AUClast, “N/A” indicates the phrase not applicable, and “NC” indicates the phrase not calculated.

Stability test in plasma [2] = format: in vitro ADME; settings: Rat plasma, 37° C.
Procedure: (§2) In order to test the stability (in vivo) of the Example compounds according to the present invention, the compounds of Examples 2, 3, 4, 8 and 15 were administered intravenously, and plasma concentrations over time were observed. In addition, procaine was used as a positive control. Plasma stability was measured three times by administering the test compound at a concentration of 5 mM to human, rat, or mouse plasma (90 μL) at 37° C. Results thereof are shown in Table below and FIGS. 3A to 3E.

[3] = Metabolic stability test in liver microsomes; format: in vitro ADME; settings: 0.5 mg protein/mL, 37° C.
Procedure: (§3) The test compounds at a concentration of […] were administered in the presence or absence of NADPH (1 mM) to liver […] (0.5 mg protein/mL) of humans, rats and mice, and metabolic stability was tested at 37° C. for 30 minutes. In addition, buspirone was used as a positive control. Results thereof are shown in Table below and FIGS. 4A to 4E.

[4] = Solubility test in administration solvent; format: physicochemical; settings: 2.0 mg/mL; Solvent A 20%, Solvent B 20%, Solvent C 60% (dimethylacetamide/Cremophor EL/20% HPbCD)
Procedure: The test substances were accurately weighed and placed in a glass vial. Then, solvent A was added in an amount corresponding to 20% of the desired final solution volume, and the mixture was completely dissolved by treatment with a vortexer and sonication. Next, solvent B in an amount corresponding to 10% or 20% of the final solution volume was added and mixed well. […] Finally, the mixture was subjected to sonication for 30 seconds. The mixed solution was prepared and used immediately before administration in the experiment. • Solvent A: Dimethylacetamide produced by SigmaAldrich • Solvent B: Cremophor EL produced by SigmaAldrich • Solvent C: 20% HPbCD ((2-Hydroxypropyl)-β-cyclodextrin produced by SigmaAldrich) in deionized water

[5] = Stability in buffer (line of the metabolic stability test); format: in vitro ADME
Procedure: as §3

Stability test in plasma [6] = format: in vitro ADME; parameters: Residue % (180 minutes elapsed), Mean: dose or concentration left out as unconfirmed; settings: 37° C.
Procedure: as §2, with “of 5 mM” left out

HeLa CCL2 tumor = assay: Anticancer effect test in human cervical cancer cell (HeLa CCL2) transplantation model; format: in vivo, BALB/C female nude mouse; settings: 25 mg/kg intraperitoneally, p<0.001
Procedure: After thawing the human […] cancer cell line HeLa CCL2 that was stored frozen in liquid nitrogen, cell culture was performed. The cells were cultured for an appropriate period in a CO2 incubator (Forma, USA) at a temperature of 37° C. and a CO2 concentration of 5%.
On the last day of culture, all cancer cells were collected and counted, and the cell concentration was adjusted to 1×10^7 cells/mL using serum free media. The cell culture solution as adjusted above was injected subcutaneously into the axillary region between the shoulder blade and the chest wall in an amount of 0.3 mL (3×10^6 cells/mouse) per BALB/C female nude mouse (5 weeks old, Nara Biotech).
Immediately prior to administration, the compounds were dissolved in a mixture of DMAC (dimethylacetamide) 20%+Tween80 5%+20% HPbCD (2-hydroxypropyl-β-cyclodextrin) 75% at an appropriate concentration and used. The prepared substances were repeatedly administered intraperitoneally in an amount of 0.2 mL (10 mL/kg) per 20 g of a mouse according to the following administration schedule. • carrier, the compound of Example 4, the compound of Example 8, and the compound of Example 15 (25 mg/kg), 0-28 days 4.3. Confirmation of Change in Tumor Size
After cancer cell transplantation, the tumor size of each animal subject was measured a total of 11 times in 3 directions using a vernier caliper from when the mean tumor size reached 57.0 mm^3 until Day 28, and calculated by the formula of length×width×height/2.
In order to test the degree of toxicity upon repeated intraperitoneal administration of the Example compound to HeLa CCL2 cancer cell transplantation nude mice, general symptoms and body weight changes of the animal subjects were observed during the administration period.
On Day 28 after drug administration, blood was collected from the mouse ophthalmic veins in 2 hours post the last administration, and the mice were killed using CO2 gas. Images of the mice were taken, and the tumor was separated and weighed on an electronic scale. After taking the images, each tumor was divided in half and fixed in liquid nitrogen and formalin, respectively. On […] after drug administration, the HeLa CCL2 tumor was excised and weighed.

HeLa cells = assay: Anti-proliferative activity test in HeLa cell line (MTT); format: cell-based; settings: Homo sapiens, 48 h, grown for 2 days, mean of 2
Procedure: HeLa cells (American Type Culture Collection: ATCC, USA), a human cervical cancer cell line, were seeded in a 96-well plate at 3×10^3 cells/well, and the cells were then treated with compounds of Examples or Comparative Example according to the present invention and grown for 2 days. Then, MTT (3-(4,5-dimethylthiazol-2-yl)-2,5-diphenyltetrazolium bromide) reagent was added at 10 μL/well. After 2 hours, absorbance was measured at “OD 450” and statistical values were obtained using Prism™6 program. The data shown in Table below are mean values of results obtained by repeating the analysis twice.

[7] = male, ICR, mouse, plasma, Oral administration, 20 mg/kg, mice, n=3

CC[C@]1(O)C[C@@H]2CN(CCc3c([nH]c4ccccc34)[C@@](C(=O)OC)(c3cc4c(cc3OC)N(C)[C@H]3[C@@](O)(C(=O)OC)[C@H](OC(C)=O)[C@]5(CC)C=CCN6CC[C@]43[C@@H]65)C2)C1 [Vinblastine, vinblastine]
pIC50 (MCF7/ADR): 7.02
Resistance Factor (MCF7/ADR): 18.17
pIC50 (K562/ADR): 6.57
Resistance Factor (K562/ADR): 15.63
pIC50 (MCF7): 8.28
pIC50 (K562): 7.77

CCOCCn1c(Cl)c(/C=N/NC(=O)c2cc3cc(OC)ccc3o2)c2cc(OC)ccc21 [Example 15, (E)-N′-[(2-chloro-1-(2-ethoxyethyl)-5-methoxy-1H-indol-3-yl]methylene}-5-methoxybenzofuran-2-carbohydrazide]
F, Mean ([1]; Oral 20 mg/kg vs intravenous 5 mg/kg, calculated using AUClast): 0.3%
Vd ([1]; male, ICR, mouse, plasma, 5 mg/kg, Intravenous administration, 5 mg/kg, mice, n=3, read-out: Vss, Mean): 0.71 L/kg
Vd ([1]; male, ICR, mouse, plasma, 5 mg/kg, Intravenous administration, 5 mg/kg, mice, n=3, read-out: Vz, Mean): 1.37 L/kg
AUC(0-inf) ([1]; male, ICR, mouse, plasma, Intravenous administration, 5 mg/kg, mice, n=3, read-out: AUCinf, Mean): 1730 ng·h/mL
AUC(0-t) ([1]; male, ICR, mouse, plasma, Intravenous administration, 5 mg/kg, mice, n=3): 1720 ng·h/mL
clearance ([1]; male, ICR, mouse, plasma, Intravenous administration, 5 mg/kg, mice, n=3, read-out: CL, Mean (converted)): 48.2 mL/min/kg
MRT inf ([1]; male, ICR, mouse, plasma, Intravenous administration, 5 mg/kg, mice, n=3, read-out: MRTinf, Mean): 14.4 min
half-life ([1]; male, ICR, mouse, plasma, Intravenous administration, 5 mg/kg, mice, n=3, read-out: t1/2, Mean (converted)): 19.8 min
Cmax [1, 7]: 34.4 ng/mL
Tmax [1, 7]: 15 min
AUC(0-t) [1, 7]: 18 ng·h/mL
half-life at 5 mM (Stability test in plasma [2]): 134 min
Residue % (180 minutes elapsed), Mean (Stability test in plasma [2]; 5 mM): 41.74%
Residue (%) after culturing for 30 min ([3]; Human, +NADPH): 7.94 ± 0.74%
Residue (%) after culturing for 30 min ([3]; Human, −NADPH): 88.63 ± 1.61%
Residue (%) after culturing for 30 min ([3]; Mouse, +NADPH): 4.82 ± 0.52%
Residue (%) after culturing for 30 min ([3]; Mouse, −NADPH): 86.31 ± 1.72%
Residue (%) after culturing for 30 min ([3]; Rat, +NADPH): 3.47 ± 0.25%
Residue (%) after culturing for 30 min ([3]; Rat, −NADPH): 94.95 ± 1.93%
Solubility evaluation result [4]: Soluble
Residue (%) after culturing for 30 min [5]: 91.02 ± 2.89%
Residue % (180 minutes elapsed), Mean (Stability test in plasma [6]; Human plasma): 4.20%
half-life at 5 mM (Stability test in plasma [6]; Human plasma): 160 min
Residue % (180 minutes elapsed), Mean (Stability test in plasma [6]; Mouse plasma): 57.25%
half-life at 5 mM (Stability test in plasma [6]; Mouse plasma): > 180 min
tumor growth inhibition (HeLa CCL2 tumor; 0-28 days, Day 28, tumor size): 40.13%
reduction in tumor weight compared with solvent control (HeLa CCL2 tumor; excised tumor): 26.2%
pIC50 (HeLa cells): 6.91

CC(=O)O[C@H]1C(=O)[C@@]2(C)[C@H]([C@H](OC(=O)c3ccccc3)[C@]3(O)C[C@H](OC(=O)[C@H](O)[C@@H](NC(=O)c4ccccc4)c4ccccc4)C(C)=C1C3(C)C)[C@]1(OC(C)=O)CO[C@@H]1C[C@@H]2O [Taxol, taxol]
pIC50 (MCF7/ADR): 5.99
Resistance Factor (MCF7/ADR): 438.38
pIC50 (K562/ADR): 6.15
Resistance Factor (K562/ADR): 519.6
pIC50 (MCF7): 8.63
pIC50 (K562): 8.87
